Reference: patent publication US20250161351A1 (priority 2022, published 2025)

Legend:
Assay in all cases: cells
[1] = tested on: Nomo-1 cells; conditions: Homo sapiens, NOMO-1, 72 h, read-out: Relative cell viability compared to control
[2] = tested on: HL-60 cells; conditions: Homo sapiens, HL-60, 72 h, read-out: Relative cell viability compared to control
[3] = tested on: patient-derived primary AML cells HD-23; conditions: 72 h, read-out: Relative cell viability compared to control

Work on `Nc1ncn([C@@H]2O[C@H](CO)[C@@H](O)[C@H]2O)c(=O)n1` [Azacytidine, 4-Amino-1-β-D-ribofuranosyl-1,3,5-(1H)triazin-2-one] yielded a viability at 1.5 µM [1] of 67.1%.
Compound `O=C(Cc1cccc(OC(F)(F)F)c1)Nc1ccc(CCCCc2nnc(NC(=O)Cc3ccccn3)s2)nn1` [CB-839] has a viability at 0.5 µM [2] of 95.1%, a viability at 1 µM [2] of 92.1% and a viability at 1 µM [3] of 84.6%. For the same compound, the viability at 0.5 µM [1] was 96.1% and the viability at 1 µM [1] was 98.1%.
`C#CCC(N)C(=O)O` (stereo not shown) [PPG, 2-aminopent-4-ynoic acid] showed a viability at 250 µM [2] of 98.7%, a viability at 500 µM [2] of 98.9% and a viability at 1000 µM [2] of 97.9%. The viability at 2000 µM [3] was 92.9%, the viability at 250 µM [1] was 97.9% and the viability at 500 µM [1] was 96.6%. For the same compound, the viability at 1000 µM [1] was 95.2%.
For `CC1(C)CCC(CN2CCN(c3ccc(C(=O)NS(=O)(=O)c4ccc(NCC5CCOCC5)c([N+](=O)[O-])c4)c(Oc4cnc5[nH]ccc5c4)c3)CC2)=C(c2ccc(Cl)cc2)C1` [Venetoclax, 4-[4-[[2-(4-Chlorophenyl)-4,4-dimethyl-1-cyclohexen-1-yl]methyl]-1-piperazinyl]-N-[[3-nitro-4-[[(tetrahydro-2H-pyran-4-yl)methyl]amino]phenyl]sulfonyl]-2-(1H-pyrrolo[2,3-b]pyridin-5-yloxy)benzamide], the viability at 0.015625 µM [1] was 93.8%, the viability at 0.03125 µM [1] was 90.4% and the viability at 0.0625 µM [1] was 85.4%. For the same compound, the viability at 0.125 µM [1] was 79.8%, the viability at 0.5 µM [1] was 63.6% and the viability at 1 µM [1] was 55.3%.
